Experimental data taken from US11572590B2, “Methods for evaluating tumor cell spheroids using 3D microfluidic cell culture device” (Dana-Farber Cancer Institute, Inc., priority 2017, dated 2023).
Like-named read-outs stand apart in the source and are kept apart here.

What was measured:
Assay in all cases: SelectScreen Kinase Profiling, single point inhibition and IC50 for off-target kinases
Format in all cases: biochemical
off-target kinases [1] = biological target: off-target kinases (Homo sapiens, UniProt P10721, Y823D); details: KIT Y823D, LanthaScreen Binding
off-target kinases [2] = biological target: off-target kinases (Homo sapiens, UniProt P23443); details: RPS6KB1 (p70S6K), ZLYTE, ATP Km app
off-target kinases [3] = biological target: T1, off-target kinases (Homo sapiens, UniProt P54753); details: EPHB3, ZLYTE, ATP Km app
T1 sequence (P54753 34-998): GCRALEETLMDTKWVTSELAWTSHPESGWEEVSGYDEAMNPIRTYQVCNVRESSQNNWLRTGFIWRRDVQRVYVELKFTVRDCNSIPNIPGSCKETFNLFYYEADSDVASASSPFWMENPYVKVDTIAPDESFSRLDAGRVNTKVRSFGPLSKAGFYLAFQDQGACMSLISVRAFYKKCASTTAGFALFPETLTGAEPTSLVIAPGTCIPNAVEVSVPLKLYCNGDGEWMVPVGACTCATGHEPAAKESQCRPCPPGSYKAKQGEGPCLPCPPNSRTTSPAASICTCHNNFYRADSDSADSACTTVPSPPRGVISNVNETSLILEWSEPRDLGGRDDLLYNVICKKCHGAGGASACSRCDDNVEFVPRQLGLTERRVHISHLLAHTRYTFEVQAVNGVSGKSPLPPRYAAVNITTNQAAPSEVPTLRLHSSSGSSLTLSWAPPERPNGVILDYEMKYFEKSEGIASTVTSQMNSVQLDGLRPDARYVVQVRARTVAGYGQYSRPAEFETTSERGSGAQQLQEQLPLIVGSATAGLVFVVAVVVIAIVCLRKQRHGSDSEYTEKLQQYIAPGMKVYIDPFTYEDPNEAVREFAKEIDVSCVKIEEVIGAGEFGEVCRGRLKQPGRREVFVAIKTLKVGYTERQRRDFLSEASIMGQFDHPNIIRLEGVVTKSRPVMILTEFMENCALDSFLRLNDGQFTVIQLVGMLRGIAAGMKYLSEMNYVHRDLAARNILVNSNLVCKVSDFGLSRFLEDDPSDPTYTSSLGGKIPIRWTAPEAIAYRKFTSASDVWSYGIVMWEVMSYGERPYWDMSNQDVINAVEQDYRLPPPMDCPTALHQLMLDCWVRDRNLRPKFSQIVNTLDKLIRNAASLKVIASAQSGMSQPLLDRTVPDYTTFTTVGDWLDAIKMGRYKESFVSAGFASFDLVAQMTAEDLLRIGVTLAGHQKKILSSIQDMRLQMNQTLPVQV

Chain of off-target kinases (Homo sapiens, UniProt P23443) (P23443 whole entry): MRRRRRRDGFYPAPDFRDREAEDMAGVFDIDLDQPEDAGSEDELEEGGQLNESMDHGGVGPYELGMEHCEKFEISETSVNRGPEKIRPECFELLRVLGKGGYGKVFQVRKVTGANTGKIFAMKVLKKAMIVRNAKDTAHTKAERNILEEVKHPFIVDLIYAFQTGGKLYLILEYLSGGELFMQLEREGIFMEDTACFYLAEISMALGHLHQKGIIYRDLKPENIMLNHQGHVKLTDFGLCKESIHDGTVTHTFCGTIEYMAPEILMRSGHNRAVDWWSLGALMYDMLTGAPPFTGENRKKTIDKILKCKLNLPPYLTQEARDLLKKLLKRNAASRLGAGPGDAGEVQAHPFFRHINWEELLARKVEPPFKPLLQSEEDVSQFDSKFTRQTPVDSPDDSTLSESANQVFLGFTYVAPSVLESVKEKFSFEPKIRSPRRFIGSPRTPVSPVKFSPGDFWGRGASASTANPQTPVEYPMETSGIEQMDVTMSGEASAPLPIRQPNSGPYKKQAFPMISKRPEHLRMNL
Chain of off-target kinases (Homo sapiens, UniProt P10721, Y823D) (P10721 26-976 Y823D): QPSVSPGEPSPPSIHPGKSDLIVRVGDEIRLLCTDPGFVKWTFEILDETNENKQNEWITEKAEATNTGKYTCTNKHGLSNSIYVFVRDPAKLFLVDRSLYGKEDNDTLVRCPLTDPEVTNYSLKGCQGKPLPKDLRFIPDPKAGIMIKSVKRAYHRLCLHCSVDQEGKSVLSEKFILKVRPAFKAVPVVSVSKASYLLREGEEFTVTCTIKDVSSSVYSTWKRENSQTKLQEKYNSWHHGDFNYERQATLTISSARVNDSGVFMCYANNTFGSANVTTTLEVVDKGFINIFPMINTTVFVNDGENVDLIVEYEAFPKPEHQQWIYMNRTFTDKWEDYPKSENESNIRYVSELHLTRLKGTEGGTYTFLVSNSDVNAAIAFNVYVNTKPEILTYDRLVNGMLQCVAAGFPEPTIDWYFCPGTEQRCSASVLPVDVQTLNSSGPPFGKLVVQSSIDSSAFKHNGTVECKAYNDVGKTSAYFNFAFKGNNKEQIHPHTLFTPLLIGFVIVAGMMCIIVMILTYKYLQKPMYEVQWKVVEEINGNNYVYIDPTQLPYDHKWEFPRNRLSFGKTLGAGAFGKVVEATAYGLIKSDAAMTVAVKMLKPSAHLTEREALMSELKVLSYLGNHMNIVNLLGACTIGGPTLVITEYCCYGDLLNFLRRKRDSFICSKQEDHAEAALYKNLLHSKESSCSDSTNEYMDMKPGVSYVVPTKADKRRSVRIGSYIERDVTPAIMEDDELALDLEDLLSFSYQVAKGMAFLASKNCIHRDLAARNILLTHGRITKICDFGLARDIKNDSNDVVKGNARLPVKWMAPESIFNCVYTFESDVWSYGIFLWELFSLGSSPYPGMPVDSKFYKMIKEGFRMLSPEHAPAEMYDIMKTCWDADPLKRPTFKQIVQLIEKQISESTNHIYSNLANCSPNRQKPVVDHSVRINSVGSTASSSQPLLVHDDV

**Q.** How did the inhibition (off-target kinases [1]; read-out: % Inhibition 1) turn out when `N#Cc1cc(-c2ncnc(Nc3ccc(N4CCN(C5COC5)CC4)cc3)n2)ccc1OC1CCOCC1` [Compound 1, 5-(4-((4-(4-(oxetan-3-yl)piperazin-1-yl)phenyl)amino)-1,3,5-triazin-2-yl)-2-((tetrahydro-2H-pyran-4-yl)oxy)benzonitrile] was run?
**A.** Its inhibition is 47%.

**Q.** And the inhibition (off-target kinases [1]; read-out: % Inhibition 2)?
**A.** The inhibition was 59%.

**Q.** What about the inhibition (off-target kinases [1]; read-out: % Inhibition Avg) of the same compound?
**A.** Its inhibition is 53%.

**Q.** What about the inhibition (off-target kinases [2]; read-out: % Inhibition 1) of the same compound?
**A.** The inhibition was 37%.

**Q.** What about the inhibition (off-target kinases [2]; read-out: % Inhibition 2) of the same compound?
**A.** Its inhibition is 36%.

**Q.** And the inhibition (off-target kinases [2]; read-out: % Inhibition Avg)?
**A.** Its inhibition is 37%.

**Q.** What about the inhibition (off-target kinases [3]; read-out: % Inhibition 1) of the same compound?
**A.** The inhibition was 3%.

**Q.** What about the inhibition (off-target kinases [3]; read-out: % Inhibition 2) of the same compound?
**A.** The inhibition was 3%.

**Q.** And the inhibition (off-target kinases [3]; read-out: % Inhibition Avg)?
**A.** Its inhibition is 3%.
